This assay relates to B16-F10 melanoma cells. Nature of the assay: B16-F10 melanoma experimental metastasis model, lung tumor nodules. The note with it: mice, tumor cells i.v.; p.o. 120 mg/kg/dosing; lungs on day 14. In kind it is in vivo, BDF1 mice. On the procedure: The B16-F10 melanoma experimental metastasis model was studied following the method of Fidler. Cells were harvested by trypsinization and washed once with serum-containing medium and three times with cold PBS and then kept on ice. Mice were injected in the tail vein with a suspension of tumor cells (2×10^5 cells/0.1 ml of PBS). Animals were dosed with compounds p.o. at −1 hr, +5 hrs, 23 hrs and 29 hrs relative to the time of the cell injection at the first two days (day 0, 1). After that the animals were dosed once a day in the morning. Compounds were administered as a suspension in 1% carboxymethyl cellulose (Wako, Japan) at a dose of 120 mg/kg/dosing. Vehicle alone was administered to the control group. On day 14, the lung of the mice were removed after sacrificing the animals and the numbers of the tumor nodules were counted manually after fixing with Bouin's solution (2% picric acid in destilled water:10% formaldehyde neutral buffer solution:acetic acid=15:5:1). In this test a decrease in the number of tumor nodules of 47% compared to the vehicle alone was determined for the compound of Example 68.

The structures appear in SMILES notation.

Take `COc1ccc(CN(CC(=O)NO)S(=O)(=O)c2ccc(OCCCCl)cc2)cc1` [Example 68, 2-{[4-(3-chloro-propoxy)-benzenesulfonyl]-(4-methoxy-benzyl)amino}-N-hydroxy-acetamide]: the “decrease in the number of tumor nodules compared to the vehicle alone” value is 47%.

For the origin of these results see US8034810B2, “Arylsulfonamido-substituted hydroxamic acid derivatives” (Novartis AG, priority 1999, dated 2011).
